Where two headings read alike, the source gives them in different places. Blank lines part the entries; values can stand above or below the compound they belong to.
Experiments:
Huh7 cells = assay: Clonogenic assay; format: cell-based; settings: for inhibition at 10 µM: Homo sapiens, Huh-7, 360 h; for inhibition at 10 µM / Clonogenic assay: colony number at 10 μM
Method: The HCC cell lines, Mahlavu, PLC5, HepG2, and Huh7, were cultured in Dulbecco's Modified Eagle Medium (DMEM; Seromed, Berlin, Germany) supplemented with 10% heat-inactivated fetal bovine serum, 100 μg/ml streptomycin, 100 μg/ml penicillin, and 2 mM L-glutamine in a humidified atmosphere containing 5% CO2 at 37° C. The viability of the exposed cells was determined using the MTT cell viability assay kit (Sigma-Aldrich, St. Louis, USA), according to the manufacturer's instructions. […] The cells were exposed to different concentrations of the small molecules for 72 hours. Control cells were incubated in the absence of small molecules. Afterwards, the cells were incubated with medium containing MTT for 2 hours. The optical density at 450 nm was measured using a microplate reader (Spectral Max250). For the clonogenic assay, Huh7 cells were seeded out in appropriate dilutions in a 6-well plate and treated with selected small molecules at various concentrations for 15 days. Colonies were fixed with glutaraldehyde (6.0% v/v), stained with crystal violet (0.5% w/v), and counted.

[1] = tested on: HCC cell lines, Mahlavu, PLC5, HepG2, and Huh7; assay: MTT cell viability test in HCC cell lines
Method: (§1) The HCC cell lines, Mahlavu, PLC5, HepG2, and Huh7, were cultured in Dulbecco's Modified Eagle Medium (DMEM; Seromed, Berlin, Germany) supplemented with 10% heat-inactivated fetal bovine serum, 100 μg/ml streptomycin, 100 μg/ml penicillin, and 2 mM L-glutamine in a humidified atmosphere containing 5% CO2 at 37° C. […] The cells were exposed to different concentrations of the small molecules for 72 hours. Control cells were incubated in the absence of small molecules. Afterwards, the cells were incubated with medium containing MTT for 2 hours. […] For the clonogenic assay, Huh7 cells were seeded out in appropriate dilutions in a 6-well plate and treated with selected small molecules at various concentrations for 15 days. Colonies were fixed with glutaraldehyde (6.0% v/v), stained with crystal violet (0.5% w/v), and counted.

HCC cell lines = assay: Drug efficacy label of top 10 CMap drugs (MTT or clonogenic); format: cell-based; settings: Table 2-3; labels (1) and (4); gene set in which the drug ranked top 10;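 also: label 1 means effective by MTT or clonogenic assay and 4 means ineffective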
Method: as §1

[2] = 72 h, Table 3-1, HCC cell lines, MTT
[3] = Table 3-1, HCC cell lines, 72 hours, MTT
[4] = 72 h, Table 2-2, HCC cell lines, MTT

Compound: O=C(CCCN1CCC2(CC1)C(=O)NCN2c1ccccc1)c1ccc(F)cc1 [spiperone]
inhibition at 10 µM (Huh7 cells; Table 3-1, 15 days): > 50%

Compound: CC(=O)[C@H]1CC[C@H]2[C@@H]3C[C@H](C)C4=CC(=O)CC[C@]4(C)[C@H]3[C@@H](O)C[C@]12C [Medrysone]
IC50 [1, 4]: > 10 µM | drug efficacy label (HCC cell lines): medrysone (4) | Clonogenic assay (Huh7 cells; Table 2-2, 15 days): Ineffective

Compound: CC(COc1ccccc1)N(CCCl)Cc1ccccc1 (centres unmarked) [phenoxybenzamine]
IC50 ([1]; 72 h): > 10 µM | IC50 [1, 3]: > 10 µM | drug efficacy label (HCC cell lines): (1) and phenoxybenzamine (1) | growth / survival of Huh7 cells (Huh7 cells): could inhibit the survival of Huh7 cells | inhibition at 10 µM (Huh7 cells; Table 3-1, 15 days): > 50% | Clonogenic assay (Huh7 cells; Table 2-2, 15 days): Effective (Effectiveness in clonogenic assay is defined as reducing more than 50% colony number at 10 μM)

Compound: Nc1ncn([C@@H]2O[C@H](CO)[C@@H](O)[C@H]2O)c(=O)n1 [azacitidine]
IC50 [1, 2]: > 10 µM | inhibition at 10 µM (Huh7 cells; Table 3-1, 15 days): > 50%

Compound: CC[C@H]1CN2CCc3cc(OC)c(OC)cc3[C@@H]2C[C@@H]1C[C@H]1NCCc2cc(OC)c(OC)cc21 [emetine]
IC50 [1, 2]: 0.1 to 1 µM

Compound: C[n+]1cc2c3c(ccc2c2ccc4cc5c(cc4c21)OCO5)OCO3 [sanguinarine]
IC50 ([1]; 72 h): 0.1 to 1 µM

Compound: C=C(C)[C@H]1Cc2c(ccc3c2O[C@@H]2COc4cc(OC)c(OC)cc4[C@@H]2C3=O)O1 [rotenone]
IC50 [1, 2]: 0.1 to 1 µM

Compound: CC(C)COCC(CN(Cc1ccccc1)c1ccccc1)N1CCCC1 (centres unmarked) [bepridil]
IC50 [1, 2]: 5 to 10 µM

Compound: Nc1nc2nn[nH]c2c(=O)[nH]1 [8-azaguanine]
IC50 [1, 4]: > 10 µM | IC50 [1, 2]: > 10 µM | drug efficacy label (HCC cell lines): 8-azaguanine (4) | Clonogenic assay (Huh7 cells; Table 2-2, 15 days): Ineffective | Clonogenic assay (Huh7 cells; Table 3-1, 15 days): Ineffective

Compound: C=C(NC(=O)C(=C)NC(=O)c1csc(C2=N[C@@H]3c4csc(n4)[C@H]4NC(=O)c5csc(n5)[C@H]([C@](C)(O)[C@@H](C)O)NC(=O)[C@H]5CSC(=N5)/C(=C/C)NC(=O)[C@H]([C@@H](C)O)NC(=O)c5csc(n5)[C@]3(CC2)NC(=O)[C@H](C)NC(=O)C(=C)NC(=O)[C@H](C)NC(=O)[C@H]([C@@H](C)CC)N[C@@H]2C=Cc3c([C@H](C)O)cc(nc3[C@H]2O)C(=O)O[C@@H]4C)n1)C(N)=O [thiostrepton]
IC50 [1, 2]: 1 to 5 µM

Compound: COc1ccccc1N1CCN(CCCCNC(=O)c2ccc3ccccc3c2)CC1.Cl.Cl [DO 897/99]
IC50 [1, 3]: > 10 µM | Clonogenic assay (Huh7 cells; Table 3-1, 15 days): Effective (Effectiveness in clonogenic assay is defined as reducing more than 50% colony number at 10 μM)

Compound: C=CCNC1=C2C[C@@H](C)C[C@H](OC)[C@H](O)[C@@H](C)/C=C(\C)[C@H](OC(N)=O)[C@@H](OC)/C=C\C=C(/C)C(=O)NC(=CC1=O)C2=O [tanespimycin]
cell viability / cytotoxicity in HCC cell lines ([1]; 0.1, 1 and 10 μM, 72 hours, MTT): exhibited cytotoxicity effect | IC50 [1, 4]: < 0.1 µM | IC50 [1, 2]: < 0.1 µM | IC50 ([1]; 72 h, HCC cell lines): < 10 µM | drug efficacy label (HCC cell lines): tanespimycin (1)

Compound: O=c1cc(-c2ccccc2)oc2cc(O)cc(O)c12 [chrysin]
IC50 [1, 2]: > 10 µM

Compound: CSc1ccc2c(c1)N(CCC1CCCCN1C)c1ccccc1S2 (centres unmarked) [thioridazine]
drug efficacy label (HCC cell lines): thioridazine (1)

Compound: CN(C)CCCN1c2ccccc2Sc2ccc(Cl)cc21 [chlorpromazine]
IC50 [1, 4]: > 10 µM | IC50 [1, 2]: 5 to 10 µM | drug efficacy label (HCC cell lines): chlorpromazine (1) | inhibition at 10 µM (Huh7 cells; Table 3-1, 15 days): > 50% | Clonogenic assay (Huh7 cells; Table 2-2, 15 days): Effective (Effectiveness in clonogenic assay is defined as reducing more than 50% colony number at 10 μM)

Compound: C[C@]12CC[C@@H]3c4ccc(O)cc4CC[C@H]3[C@@H]1CC[C@H]2O [Alpha-estradiol]
IC50 [1, 4]: > 10 µM | drug efficacy label (HCC cell lines): Alpha-estradiol (4) | Clonogenic assay (Huh7 cells; Table 2-2, 15 days): Ineffective

Compound: Oc1ccc(C=Cc2cc(O)cc(O)c2)cc1 [resveratrol]
drug efficacy label (HCC cell lines): resveratrol (4)

Compound: Clc1ccc(CSC(Cn2ccnc2)c2ccc(Cl)cc2Cl)cc1 (centres unmarked) [sulconazole]
inhibition at 10 µM (Huh7 cells; Table 3-1, 15 days): > 50% | Clonogenic assay (Huh7 cells; Table 2-2, 15 days): Effective (Effectiveness in clonogenic assay is defined as reducing more than 50% colony number at 10 μM)

Compound: CCOc1cc(CC(=O)N[C@@H](CC(C)C)c2ccccc2N2CCCCC2)ccc1C(=O)O [Repaglinide]
IC50 [1, 4]: > 10 µM | drug efficacy label (HCC cell lines): repaglinide (4) | Clonogenic assay (Huh7 cells; Table 2-2, 15 days): Ineffective

Compound: CC[C@@]1(O)C(=O)OCc2c1cc1n(c2=O)Cc2cc3ccccc3nc2-1 [camptothecin]
IC50 [1, 2]: 0.1 to 1 µM

Compound: Cc1ccsc1/C=C/C1=NCCCN1C [morantel]
IC50 ([1]; 72 h): > 10 µM

Compound: COc1cnc(NS(=O)(=O)c2ccc(N)cc2)nc1 [sulfametoxydiazine]
IC50 [1, 2]: > 10 µM

Compound: Cc1c2ccncc2c(C)c2c1[nH]c1ccccc12 [ellipticine]
IC50 [1, 2]: 0.1 to 1 µM

Compound: O=C1c2c(O)ccc(O)c2C(=O)c2c(NCCNCCO)ccc(NCCNCCO)c21 [mitoxantrone]
IC50 [1, 2]: 0.1 to 1 µM

Compound: O=C(O)CNC(=O)C(CS)Cc1ccccc1 (racemic) [DL-thiorphan]
IC50 [1, 3]: > 10 µM | Clonogenic assay (Huh7 cells; Table 3-1, 15 days): Ineffective

Compound: CCCCC(CC)CNC(=N)NC(=N)NCCCCCCNC(=N)NC(=N)NCC(CC)CCCC (centres unmarked) [alexidine]
IC50 [1, 2]: 0.1 to 1 µM

Compound: COc1cc(/C=C/C(=O)N2CCC=CC2=O)cc(OC)c1OC [piperlongumine]
IC50 [1]: 1 to 5 µM

Compound: O=C1Nc2ccc3ncsc3c2/C1=C/Nc1ccc(S(=O)(=O)Nc2ccccn2)cc1 [GW-8510]
IC50 [1, 3]: 5 to 10 µM

Second part, led by results:

IC50 [1, 2]: > 10 µM
Compound: CC[C@H](c1ccc(O)cc1)[C@@H](CC)c1ccc(O)cc1 [hexestrol]
drug efficacy label (HCC cell lines): hexestrol (4) | Clonogenic assay (Huh7 cells; Table 3-1, 15 days): Ineffective

IC50 [1, 3]: > 10 µM
Compound: CC1=CC(=O)C2=C(C)CC[C@@H]3[C@H](OC(=O)[C@H]3C)[C@@H]12 [leucomisine]
Clonogenic assay (Huh7 cells; Table 3-1, 15 days): Ineffective

IC50 [1, 2]: > 10 µM
Compound: N[C@@H]1CON=C1O [cycloserine]
Clonogenic assay (Huh7 cells; Table 3-1, 15 days): Ineffective

IC50 [1, 2]: > 10 µM
Compound: Cc1cc2cc3c(C)cc(=O)oc3c(C)c2o1 [trioxysalen]
inhibition at 10 µM (Huh7 cells; Table 3-1, 15 days): > 50%

IC50 [1, 2]: 1 to 5 µM
Compound: OC(c1cc(C(F)(F)F)nc2c(C(F)(F)F)cccc12)C1CCCCN1 (centres unmarked) [mefloquine]

IC50 [1, 2]: > 10 µM
Compound: Clc1ccc(C(OCCN2CCCCC2)c2ccccc2)cc1 (centres unmarked) [cloperastine]
drug efficacy label (HCC cell lines): cloperastine (4) | inhibition at 10 µM (Huh7 cells; Table 3-1, 15 days): > 50%

IC50 [1, 2]: > 10 µM
Compound: C[C@]12CC[C@@H]3c4ccc(O)cc4CC[C@H]3[C@@H]1C[C@@H](O)[C@@H]2O [estriol]

IC50 [1, 2]: > 10 µM
Compound: CN(C)C/C=C(/c1ccc(Br)cc1)c1cccnc1 [zimeldine]
Clonogenic assay (Huh7 cells; Table 3-1, 15 days): Ineffective

IC50 [1, 2]: > 10 µM
Compound: COc1ccc([C@@H]2Sc3ccccc3N(CCN(C)C)C(=O)[C@@H]2OC(C)=O)cc1 [diltiazem]

IC50 [1, 3]: > 10 µM
Compound: C[C@@H]1C(=O)O[C@H]2C[C@@]34[C@H]5C[C@@H](C(C)(C)C)[C@]36[C@@H](OC(=O)[C@@H]6O)O[C@@]4(C(=O)O5)[C@]21O [ginkgolide A]

IC50 [1, 2]: > 10 µM
Compound: O=C(O)c1ccccc1C(=O)Nc1ccc(S(=O)(=O)Nc2nccs2)cc1 [phthalylsulfathiazole]
Clonogenic assay (Huh7 cells; Table 3-1, 15 days): Ineffective

IC50 [1, 2]: > 10 µM
Compound: Cc1cc2c(cc1S(N)(=O)=O)S(=O)(=O)CCC2 [meticrane]
Clonogenic assay (Huh7 cells; Table 3-1, 15 days): Ineffective

IC50 [1, 2]: > 10 µM
Compound: COc1ccc2c(OC)c3ccoc3nc2c1OC [skimmianine]
inhibition at 10 µM (Huh7 cells; Table 3-1, 15 days): > 50%

IC50 [1, 2]: > 10 µM
Compound: C#CCN(C)Cc1ccccc1 [pargyline]

IC50 [1, 2]: 5 to 10 µM
Compound: Oc1c(I)cc(Cl)c2cccnc12 [clioquinol]

IC50 [1, 2]: > 10 µM
Compound: CCN(CC)CCOC(=O)c1ccc(N)cc1 [procaine]

IC50 [1, 2]: > 10 µM
Compound: Cn1c([N+](=O)[O-])cnc1COC(N)=O [ronidazole]

IC50 [1, 4]: > 10 µM | IC50 [1, 2]: > 10 µM
Compound: CC(=O)Oc1cc(C(F)(F)F)ccc1C(=O)O [triflusal]
Clonogenic assay (Huh7 cells; Table 2-2, 15 days): Ineffective | Clonogenic assay (Huh7 cells; Table 3-1, 15 days): Ineffective

IC50 [1, 2]: > 10 µM
Compound: CCCNCC(O)COc1ccccc1C(=O)CCc1ccccc1 (centres unmarked) [propafenone]
inhibition at 10 µM (Huh7 cells; Table 3-1, 15 days): > 50%

IC50 [1, 2]: > 10 µM
Compound: CC(C(=O)O)c1cccc(Oc2ccccc2)c1 (centres unmarked) [fenoprofen]

IC50 [1, 2]: > 10 µM
Compound: CC[C@H]1OC(=O)[C@H](C)[C@@H](O[C@H]2C[C@@](C)(OC)[C@@H](O)[C@H](C)O2)[C@H](C)[C@@H](O[C@@H]2O[C@H](C)C[C@H](N(C)C)[C@H]2O)[C@](C)(O)C[C@@H](C)/C(=N\OCOCCOC)[C@H](C)[C@@H](O)[C@]1(C)O [roxithromycin]

IC50 [1, 3]: 5 to 10 µM
Compound: tyloxapol

IC50 [1, 2]: > 10 µM
Compound: CC1CC(OC(=O)C(O)c2ccccc2)CC(C)(C)N1C (centres unmarked) [eucatropine]

IC50 [1, 2]: > 10 µM
Compound: COc1c2ccoc2nc2c(OC)c(OCC(O)C(C)(C)O)ccc12 (centres unmarked) [evoxine]
Clonogenic assay (Huh7 cells; Table 3-1, 15 days): Ineffective

IC50 [1, 2]: 5 to 10 µM
Compound: Cc1cc(C2CCCCC2)n(O)c(=O)c1 [ciclopirox]

IC50 [1, 3]: 0.1 to 1 µM
Compound: CC1=C(CO)C(=O)O[C@@H]([C@@H](C)[C@H]2CC[C@H]3[C@@H]4C[C@H]5O[C@]56[C@@H](O)C=CC(=O)[C@]6(C)[C@H]4CC[C@]23C)C1 [withaferin A]

IC50 [1, 4]: > 10 µM | IC50 [1, 2]: > 10 µM
Compound: OCCN(CCO)c1nc(N2CCCCC2)c2nc(N(CCO)CCO)nc(N3CCCCC3)c2n1 [dipyridamole]
inhibition at 10 µM (Huh7 cells; Table 3-1, 15 days): > 50% | Clonogenic assay (Huh7 cells; Table 2-2, 15 days): Effective (Effectiveness in clonogenic assay is defined as reducing more than 50% colony number at 10 μM)

IC50 [1, 2]: > 10 µM
Compound: C#C[C@]1(O)CC[C@H]2[C@@H]3CCC4=CC(=O)CC[C@@H]4[C@H]3CC[C@@]21CC [levonorgestrel]

IC50 [1, 2]: > 10 µM
Compound: Cc1ccc(S(=O)(=O)NC(=O)NN2CC3CCCC3C2)cc1 (centres unmarked) [gliclazide]
Clonogenic assay (Huh7 cells; Table 3-1, 15 days): Ineffective

From patent US20110287953A1, “METHOD FOR DISCOVERING POTENTIAL DRUGS” (priority 2010, published 2011)
